Laboratory results: EP1137632B1, “THIOUREA INHIBITORS OF HERPES VIRUSES” (Wyeth, priority 1998, dated 2000)
≈ marks a conversion by molar mass, not a printed value.

Tests used:
[1] = test system: VZV strain Ellen; assay: VZV antiviral (ELISA) assay in human foreskin fibroblast cells; format: cell-based, varicella-zoster virus; details: for IC50: Human alphaherpesvirus 3, VZV strain Ellen in HFF cells, read-out: IC50 (ug/ml) VZV
Procedure, shortened: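 HFF cells infected with VZV Ellen (MOI <0.1) overnight, then plated at 3.5x10^4 cells/well with compound in DMEM + 2% FBS for three days at 37°C, 5% CO2. Viral glycoprotein II quantified by ELISA with β-galactosidase-linked secondary and 4-methylumbelliferyl-galactoside fluorescence (365/450 nm); IC50 versus no-compound fluorescence.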

[2] = test system: HCMV recombinant mutant virus; assay: microbe, parasite or virus in culture; format: cell-based, human cytomegalovirus; details: Human betaherpesvirus 5, read-out: IC50 (ug/ml) HCMV
Procedure, shortened: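 Human foreskin fibroblasts were infected with a recombinant HCMV carrying a beta-glucuronidase gene under a viral promoter, in the presence of compound. At 96 h post-infection, lysate beta-glucuronidase activity was read colorimetrically or fluorometrically as a replication marker. IC50 came from the compound dose range.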

[3] = test system: HSV-1; assay: HSV antiviral (ELISA) assay in Vero cells; format: cell-based, herpes simplex virus type 1; details: Human alphaherpesvirus 1; HSV-1 in Vero cells; read-out: IC50 (ug/ml) HSV
Procedure, shortened: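 Vero cells in DMEM/2% FBS treated with compound 30 min before HSV-1 infection (MOI 0.006), ~24 h at 37 °C. Viral glycoprotein D measured by cell ELISA with β-galactosidase-linked secondary and fluorogenic methylumbelliferyl galactoside (ex 365/em 450 nm); IC50 versus no-compound fluorescence.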

| Structure (SMILES) | IC50 [1] | IC50 [2] | IC50 [3] | inhibition at 10 µg/mL ([1]; Human alphaherpesvirus 3, Fibroblast, read-out: % inhibition 10 ug/ml VZV) |
| --- | --- | --- | --- | --- |
| CC(NC(=S)Nc1ccc(NC(=O)c2ccccc2F)c(OCC#N)c1)c1ccc(F)cc1 (stereo not shown) [Example 1062, 2-Fluoro-N-[4-{3-[1-(4-fluoro-phenyl)-ethyl]-thioureido}-2-(2-nitrilo-ethoxy)-phenyl]-benzamide] | 0.33 µg/mL (≈ 0.707 µM) | 6 µg/mL (≈ 12.9 µM) | > 10 µg/mL | – |
| CCCCOc1cc(NC(=S)NC(C)c2ccc(C#N)cc2)ccc1NC(=O)c1ccccc1F (stereo not shown) [Example 1056, N-(2-Butoxy-4-{3-[1-(4-cyano-phenyl)-ethyl]-thioureido}-phenyl)-2-fluoro-benzamide] | 0.4 µg/mL (≈ 0.815 µM) | 2.5 µg/mL (≈ 5.1 µM) | > 10 µg/mL | – |
| Cc1cc(NC(=S)NC(C)c2ccc(F)cc2)ccc1NC(=O)c1cc2ccccc2o1 (stereo not shown) [Example 1073, Benzofuran-2-carboxylic acid (4-{3-[1-(4-fluoro-phenyl)-ethyl]-thioureido}-2-methyl-phenyl)-amide] | 0.47 µg/mL (≈ 1.05 µM) | 6.3 µg/mL (≈ 14.1 µM) | 4.6 µg/mL (≈ 10.3 µM) | – |
| CC(NC(=S)Nc1ccc(NC(=O)c2ccccc2F)c(C#N)c1)c1ccc(Br)cc1 (stereo not shown) [Example 1041, N-(4-{3-[1-(4-Bromo-phenyl)-ethyl]-thioureido}-2-cyano-phenyl)-2-fluoro-benzamide] | 0.096 µg/mL (≈ 0.193 µM) | 10.4 µg/mL (≈ 20.9 µM) | > 10 µg/mL | – |
| Cc1cc(NC(=S)NC(C)c2ccc(Br)cc2)ccc1NC(=O)c1ccccc1F (stereo not shown) [Example 1046, N-(4-{3-[1-(4-Bromo-phenyl)-ethyl]-thioureido}-2-methyl-phenyl)-2-fluoro-benzamide] | 0.057 µg/mL (≈ 0.117 µM) | 2.8 µg/mL (≈ 5.76 µM) | 6.3 µg/mL (≈ 13 µM) | – |
| CC(NC(=S)Nc1ccc(NC(=O)c2ccccc2F)c(OCC#N)c1)c1ccc(C#N)cc1 (stereo not shown) [Example 1063, N-[4-{3-[1-(4-Cyano-phenyl)-ethyl]-thioureido}-2-(2-nitrilo-ethoxy)-phenyl]-2-fluoro-benzamide] | 0.64 µg/mL (≈ 1.35 µM) | 3.6 µg/mL (≈ 7.6 µM) | > 10 µg/mL | – |
| CC(NC(=S)Nc1ccc(NC(=O)c2cc3ccccc3o2)c(C(F)(F)F)c1)c1ccc(F)cc1 (stereo not shown) [Example 1067, Benzofuran-2-carboxylic acid (4-{3-[1-(4-fluoro-phenyl)-ethyl]-thioureido}-2-trifluoromethyl-phenyl)-amide] | 0.26 µg/mL (≈ 0.518 µM) | 3.3 µg/mL (≈ 6.58 µM) | 3.8 µg/mL (≈ 7.58 µM) | – |
| CC(NC(=S)Nc1ccc(NC(=O)c2cc3ccccc3cn2)c(C#N)c1)c1ccc(F)cc1 (stereo not shown) [Example 1071, Isoquinoline-3-carboxylic acid (2-cyano-4-{3-[1-(4-fluoro-phenyl)-ethyl]-thioureido}-phenyl)-amide] | 0.03 µg/mL (≈ 0.0639 µM) | > 10 µg/mL | 9 µg/mL (≈ 19.2 µM) | – |
| COc1cc(OC)c(NC(=S)Nc2cc(C)c(NC(=O)c3ccccc3F)cc2Cl)cc1Cl [Example 327, N-{5-Chloro-4-[3-(5-chloro-2,4-dimethoxy-phenyl)-thioureido]-2-methyl-phenyl}-2-fluoro-benzamide] | > 10 µg/mL | > 10 µg/mL | > 10 µg/mL | 42% |
| CC(NC(=S)Nc1ccc(NC(=O)c2ccccc2F)c(C#N)c1)c1ccc(F)cc1 (stereo not shown) [Example 1040, N-(2-Cyano-4-{3-[1-(4-fluoro-phenyl)-ethyl]-thioureido}-phenyl)-2-fluoro-benzamide] | 0.05 µg/mL (≈ 0.115 µM) | > 10 µg/mL | > 10 µg/mL | – |
